What is called IC50 is the concentration at which inhibition is half-maximal.

The first experiment has as its system IL-12 production. In words: In vitro Assay for IL-12 Inhibition (IL-12 production by THP-1 cells or human peripheral whole blood, ELISA). It is filed as cell-based. Conditions: Homo sapiens, THP-1, 48 h, read-out: IC50 values for the inhibition of IL-12 production.
For `C=C1/C(=C\C=C2/CCC[C@]3(C)[C@@H]([C@H](C)CCCC(C)(C)O)CC[C@@H]23)C[C@@H](O)C[C@@H]1O` [Calcitriol, reference compound], the half-inhibitory concentration (IC50) stood at 0.06 µM.

Still in this experiment, the particulars now being: THP-1 cells stimulated with SAC and huIFN-γ (1000 U/ml), or alternatively human peripheral whole blood primed with huIFN-γ then SAC; supernatants after 48 hours; IL-12 by ELISA; read-out: IC50 values for the inhibition of IL-12 production.
As for `C=C1/C(=C\C=C2/CCC[C@]3(C)[C@@H]([C@H](C)C/C=C/C=C/C(C)(C)O)CCC[C@@H]23)C[C@@H](O)C[C@@H]1O` [Example 4, (5Z,7E,23E,24aE)-(1S,3R)-17a,24a,24b-trihomo-9,10-seco-cholesta-5,7,10(19),23,24a-pentaene-1,3,25-triol], the half-maximal inhibitory concentration (IC50) was 0.001 µM.
As to `C[C@H](CC=CC#CC(C)(C)O)[C@H]1CC[C@H]2/C(=C/C=C3C[C@@H](O)C[C@H](O)C3)CCC[C@]12C` [Example 13a, (7E,23E)- and (7E,23Z)-(1R,3R)-24a,24b-dihomo-19-nor-9,10-seco-cholesta-5,7,23-trien-24a-yne-1,3,25-triol], the IC50 worked out at 0.01 µM.
On the same count and under the same terms, then `C[C@H](CC=CC#CC1(O)CCCC1)[C@H]1CC[C@H]2/C(=C/C=C3C[C@@H](O)C[C@H](O)C3)CCC[C@]12C` [Example 13c, (7E,23E)- and (7E,23Z)-(1R,3R)-25-(1-hydroxy-cyclopentyl)-24a,24b-dihomo-19-nor-9,10-seco-cholesta-5,7,23-trien-24a-yne-1,3,25-diol], with 0.01 µM; and `C[C@H](CC=C/C=C/C1(O)CCCC1)[C@H]1CC[C@H]2/C(=C/C=C3C[C@@H](O)C[C@H](O)C3)CCC[C@]12C` [Example 13f, (7E,23E,24aE)- and (7E,23Z,24aE)-(1R,3R)-25-(1-hydroxy-cyclopentyl)-24a,24b-dihomo-19-nor-9,10-seco-cholesta-5,7,23,24a-tetraen-24a-yne-1,3,25-diol], with 0.01 µM.
The same measure, in the same setting: then `C=C1/C(=C\C=C2/CCC[C@]3(C)[C@@H]([C@H](C)C/C=C/C=C/C(C)(C)O)CC[C@@H]23)C[C@H](O)C[C@@H]1O` [Example 3, (5Z,7E,23E,24aE)-(1S,3S)-24a,24b-Dihomo-9,10-seco-cholesta-5,7,10(19),23,24a-pentaene-1,3,25-triol], with 0.03 µM; and `C=C1/C(=C\C=C2/CCC[C@]3(C)C([C@H](C)C/C=C/C=C/C(C)(C)O)=CCC[C@@H]23)C[C@@H](O)C[C@@H]1O` [Example 8, (5Z,7E,23E,24aE)-(1S,3R)-17a,24a,24b-Trihomo-9,10-seco-cholesta-5,7,10(19),17,23,24a-hexaene-1,3,25-triol], with 0.001 µM.
Take `C[C@H](CC=CC#CC(O)(C(F)(F)F)C(F)(F)F)[C@H]1CC[C@H]2/C(=C/C=C3C[C@@H](O)C[C@H](O)C3)CCC[C@]12C` [Example 13d, (7E,23E)- and (7E,23Z)-(1R,3R)-26,26,26,27,27,27-hexafluoro-24a,24b-dihomo-19-nor-9,10-seco-cholesta-5,7,23-trien-24a-yne-1,3,25-triol]: the half-maximal inhibitory concentration (IC50) stood at 0.01 µM.
The same measure, in the same setting: then `CCC(O)(/C=C/C=CC[C@@H](C)[C@H]1CC[C@H]2/C(=C/C=C3C[C@@H](O)C[C@H](O)C3)CCC[C@]12C)CC` [Example 13e, (7E,23E24aE)- and (7E,23Z,24aE)-(1R,3R)-24a,24b,26a,26b-tetrahomo-19-nor-9,10-seco-cholesta-5,7,23,24a-tetraen-24a-yne-1,3,25-triol], with 0.001 µM; and `C=C1C(=CC=C2CCCC3(C)C2CCC3C(C)CC=CC=CC(C)(C)O)CC(O)CC1O` [Example 1, (5Z,7E ,23E,24aE)-(1R,3S)-24a,24b-dihomo-9,10-seco-cholesta-5,7,10(19),23,24a-pentaene-1,3,25-triol], with 0.01 µM.

(Values after patent US5994569A, “Dihomo-seco-cholestanes” (Hoffmann-La Roche Inc., priority 1997, dated 1999).)
